Experimental data taken from ChEMBL document CHEMBL1146747, “Novel lopinavir analogues incorporating heterocyclic replacements of six-member cyclic urea--synthesis and structure-activity relationships” (Bioorg Med Chem Lett, 2004).
pEC50: −log10 of the molar value.

Tests used:
[1] = biological target: Human immunodeficiency virus type 1 protease (Human immunodeficiency virus 1) (UniProt Q72874); assay: Inhibitory activity (0.5 nM) against Protease
MT4 = assay: Tested for cytopathic effect of HIVIIIB in MT-4 cells in presence of 50% human serum; type: functional, cell-based

| inhibition [1] | SMILES | pEC50 (MT4) |
| --- | --- | --- |
| 93% | Cc1cccc(C)c1OCC(=O)N[C@@H](Cc1ccccc1)[C@@H](O)C[C@H](Cc1ccccc1)NC(=O)[C@H](C(C)C)N1CCNC1=O | 7.15 |
| 58% | Cc1cccc(C)c1OCC(=O)N[C@@H](Cc1ccccc1)[C@@H](O)C[C@H](Cc1ccccc1)NC(=O)[C@H](C(C)C)N1C(=O)CCC1=O | 5.60 |
| 87% | Cc1cccc(C)c1OCC(=O)N[C@@H](Cc1ccccc1)[C@@H](O)C[C@H](Cc1ccccc1)NC(=O)[C@H](C(C)C)N1CCOC1=O | 6.96 |
| 85% | Cc1cccc(C)c1OCC(=O)N[C@@H](Cc1ccccc1)[C@@H](O)C[C@H](Cc1ccccc1)NC(=O)[C@H](C(C)C)N1CCCOC1=O | 6.57 |
| 63% | Cc1cccc(C)c1OCC(=O)N[C@@H](Cc1ccccc1)[C@@H](O)C[C@H](Cc1ccccc1)NC(=O)[C@H](C(C)C)N1CCN=C1S | 5.42 |
|  | Cc1cccc(C)c1OCC(=O)N[C@@H](Cc1ccccc1)[C@@H](O)C[C@H](Cc1ccccc1)NC(=O)[C@H](C(C)C)N1CCCNC1=O [LOPINAVIR] | 7.00 |
| 100% | Cc1cccc(C)c1OCC(=O)N[C@@H](Cc1ccccc1)[C@@H](O)C[C@H](Cc1ccccc1)NC(=O)[C@H](C(C)C)N1CCC(=O)NC1=O | 6.85 |
| 73% | Cc1cccc(C)c1OCC(=O)N[C@@H](Cc1ccccc1)[C@@H](O)C[C@H](Cc1ccccc1)NC(=O)[C@H](C(C)C)N1CCNC(=O)C1=O | 5.52 |
| 80% | Cc1cccc(C)c1OCC(=O)N[C@@H](Cc1ccccc1)[C@@H](O)C[C@H](Cc1ccccc1)NC(=O)[C@H](C(C)C)N1CCCN(C)C1=O | 5.97 |
| 87% | Cc1cccc(C)c1OCC(=O)N[C@@H](Cc1ccccc1)[C@@H](O)C[C@H](Cc1ccccc1)NC(=O)[C@H](C(C)C)N1CCCC1=O | 6.51 |
